# How the values were obtained:
# [1] = Penetration of P11-4 (200 ppm, spiked with 10 ppm ATTO647-P11-4, 25 mM TRIS) into artificial subsurface lesions, confocal microscopy; design: species or system human; key to presence of fluorescent P11-4 in lesion, 6 d / presence of fluorescent P11-4 in lesion, 1 min / presence of fluorescent P11-4 in lesion, 2 min / presence of fluorescent P11-4 in lesion, 5 min / presence of fluorescent P11-4 in lesion, 4 d: 1 = no or low presence; 4 = high presence of fluorescent P11-4; Average presence of P11-4: scale not given here; settings: for presence of fluorescent P11-4 in lesion, 1 min: 1 min incubation; for presence of fluorescent P11-4 in lesion, 2 min: 2 min incubation; for presence of fluorescent P11-4 in lesion, 5 min: 5 min incubation; for presence of fluorescent P11-4 in lesion, 6 d: washing in H2O; for presence of fluorescent P11-4 in lesion, 4 d: washing in Remin. buffer
# Protocol: Creation of artificial lesions on extracted human molar teeth was performed as described by Lo et al. 2010 (J Dent. 38(4):352-359). To define the position of the demineralized subsurface area (i.e., artificial carious lesion or white spot), the tooth was covered with colourless nail varnish, leaving a window of approximately 4×4 mm. The tooth was placed in demineralization buffer (2.2 mM CaCl2, 2.2 mM NaH2PO4, 50 mM acetic acid; pH adjusted with 1 M KOH to 4.4) for 3 d at 37° C. To ensure that all pores are open, as in a typical active caries lesion, the resulting subsurface lesions were treated with 10 μL of 2% NaClO (incubation for 1 min), rinsed, and air-dried at room temperature.
# • A 200 ppm (i.e., 200 μg/ml) solution of P11-4 (SEQ ID NO: 2), spiked with 10 ppm ATTO647-P11-4 (fluorescence labelled P11-4 (SEQ ID NO: 6): Ac-QQRFEWEFEQQSGSGC-(ATTO647)-NH2), i.e., 1:20, in 25 mM TRIS buffer was prepared at different pH, in particular, at 8.4 or 8.5 or 6.3, 6.5 or 6.8) • As specified in the table below, tooth were optionally pretreated, e.g., by incubation in human saliva for one day (about 24 hours), optionally followed by 5 min sonication (258 hz with a sonic toothbrush, Sonicare Diamond Clean® (Philips)) or by immersion in 2% NaClO for 1 min. • Tooth were immersed in the P11-4 solution for a defined period of time, 1, 2 or 5 min, and then removed and washed in water for 10 min or in remineralization buffer (2 mM Ca(NO3), 1.2 mM KHPO4, and 60 mM Tris/HCl, pH adjusted to 7.4 with 1 M KOH) for 4 days and/or 6 days. • Confocal assessment after 1, 2 or 5 min incubation was carried out while the teeth were in P11-4 solution, and optionally, after washing in water or in remineralization buffer after 10 min or 4 or 6 days. c) Confocal Microscopy
# Samples were placed in a μ-slide I (ibidi, Martinsried) in dest. water and analyzed by a confocal laser microscope (Olympus IX81). The recorded stack of four 2-dimensional images each projected the lesion volume of 51.4 μm thickness, giving a total assessment depth of 205 μm (objective: UPLSAPO 20×/NA 0.75; helium-neon gas laser; excitation: 633 nm and emission: 668 nm). Images were analyzed by Olympus software (FluoView FV1000).
# [2] = pH at which the peptide starts to undergo self-assembly; assay type: physicochemical; settings: in solution
# Description: As used herein, the pH at which the self-assembling peptide starts to undergo self-assembly refers to the pH below which a significant extent of self-assembly of the peptides in solution is observed, which means that at least about 25%, about 30%, about 35%, about 40%, about 45%, about 50%, about 55%, about 60%, about 65%, about 70%, about 75%, about 80%, about 85%, about 90%, about 95%, about 99% or even about 100% of the peptides found in the dental care product are assembled. In a preferred embodiment, at least about 25% of the peptides found in the dental care product are assembled below the pH at which the peptide starts to undergo self-assembly.
# Further, the skilled person is aware of numerous methods to determine the pH at which a peptide of the present invention will start self-assembly at a given ionic strength. Suitable methods are denoted e.g. in a publication by Aggeli et al. (2003, J Am Chem Soc, 125, 9619-9628).
# [3] = 200 ppm in a slightly basic buffer
# [4] = tooth 1, pH 8.4, no pretreatment
# [5] = tooth 2, pH 8.4, no pretreatment
# [6] = tooth 3, pH 6.3, saliva pre-incubation
# [7] = tooth 4, pH 6.3, no pretreatment
# [8] = tooth 5, pH 8.5, saliva pre-incubation
# [9] = tooth 10, pH 8.5, no pretreatment
# [10] = tooth 11, pH 8.5, saliva pre-incubation
# [11] = tooth 12, pH 6.5, no pretreatment
# [12] = tooth 13, pH 6.8, saliva pre-incubation
# [13] = tooth ZR1, pH 8.5, sonification pretreatment
# [14] = tooth ZR2, pH 8.5, saliva pre-incubation then NaClO
# [15] = tooth ZR3, pH 8.5, saliva pre-incubation then sonification
# [16] = tooth ZR4, pH 8.5, saliva pre-incubation
substance,measurement,setting,value
Ac-QQRFEWEFEQQSGSGC-(ATTO647)-NH2 (Ac-QQRFEWEFEQQSGSGC(ATTO647)-NH2) [fluorescent P11-4],diffusion of monomeric peptide into artificial carious lesions,[1]; [3],can diffuse into the artificial carious lesions and form a stable network there
same,peptide detected outside the lesions,[1]; [3],No significant amounts
same,effect of pre-incubation with human saliva (pellicle) on presence of fluorescent peptide on the tooth or in the lesions,"[1]; pH 8.5, 1, 2, or 5 min, teeth 11, 5 and ZR4, versus no pre-incubation",significantly lower presence
same,Average presence of P11-4,[1]; [4],2.7
same,"presence of fluorescent P11-4 in lesion, 1 min",[1]; [4],4
same,"presence of fluorescent P11-4 in lesion, 2 min",[1]; [4],2
same,"presence of fluorescent P11-4 in lesion, 5 min",[1]; [4],2
same,"presence of fluorescent P11-4 in lesion, 1 min",[1]; [5],1
same,"presence of fluorescent P11-4 in lesion, 2 min",[1]; [5],3
same,"presence of fluorescent P11-4 in lesion, 5 min",[1]; [5],3
same,Average presence of P11-4,"[1]; tooth 2, pH 8.4, no pretreatment, H2O wash",2.0
same,"presence of fluorescent P11-4 in lesion, 6 d",[1]; [5],1
same,"presence of fluorescent P11-4 in lesion, 1 min",[1]; [6],1
same,"presence of fluorescent P11-4 in lesion, 2 min",[1]; [6],1
same,"presence of fluorescent P11-4 in lesion, 5 min",[1]; [6],1
same,Average presence of P11-4,"[1]; tooth 3, pH 6.3, saliva pre-incubation, H2O wash",1.0
same,"presence of fluorescent P11-4 in lesion, 6 d",[1]; [6],1
same,"presence of fluorescent P11-4 in lesion, 1 min",[1]; [7],1
same,"presence of fluorescent P11-4 in lesion, 2 min",[1]; [7],1
same,"presence of fluorescent P11-4 in lesion, 5 min",[1]; [7],2
same,Average presence of P11-4,"[1]; tooth 4, pH 6.3, no pretreatment, H2O wash",1.3
same,"presence of fluorescent P11-4 in lesion, 6 d",[1]; [7],1
same,Average presence of P11-4,[1]; [8],1.3
same,"presence of fluorescent P11-4 in lesion, 1 min",[1]; [8],2
same,"presence of fluorescent P11-4 in lesion, 2 min",[1]; [8],1
same,"presence of fluorescent P11-4 in lesion, 5 min",[1]; [8],1
same,"presence of fluorescent P11-4 in lesion, 1 min",[1]; [9],1
same,"presence of fluorescent P11-4 in lesion, 2 min",[1]; [9],4
same,"presence of fluorescent P11-4 in lesion, 5 min",[1]; [9],4
same,Average presence of P11-4,"[1]; tooth 10, pH 8.5, no pretreatment, Remin. buffer wash",2.8
same,"presence of fluorescent P11-4 in lesion, 4 d",[1]; [9],2
same,"presence of fluorescent P11-4 in lesion, 1 min",[1]; [10],1
same,"presence of fluorescent P11-4 in lesion, 2 min",[1]; [10],1
same,"presence of fluorescent P11-4 in lesion, 5 min",[1]; [10],1
same,Average presence of P11-4,"[1]; tooth 11, pH 8.5, saliva pre-incubation, Remin. buffer wash",1.0
same,"presence of fluorescent P11-4 in lesion, 4 d",[1]; [10],1
same,"presence of fluorescent P11-4 in lesion, 1 min",[1]; [11],2
same,"presence of fluorescent P11-4 in lesion, 2 min",[1]; [11],3.5
same,"presence of fluorescent P11-4 in lesion, 5 min",[1]; [11],2
same,Average presence of P11-4,"[1]; tooth 12, pH 6.5, no pretreatment, Remin. buffer wash",2.1
same,"presence of fluorescent P11-4 in lesion, 4 d",[1]; [11],1
same,"presence of fluorescent P11-4 in lesion, 1 min",[1]; [12],1
same,"presence of fluorescent P11-4 in lesion, 2 min",[1]; [12],2
same,"presence of fluorescent P11-4 in lesion, 5 min",[1]; [12],2
same,Average presence of P11-4,"[1]; tooth 13, pH 6.8, saliva pre-incubation, Remin. buffer wash",1.5
same,"presence of fluorescent P11-4 in lesion, 4 d",[1]; [12],1
same,Average presence of P11-4,[1]; [13],4.0
same,"presence of fluorescent P11-4 in lesion, 1 min",[1]; [13],4
same,"presence of fluorescent P11-4 in lesion, 2 min",[1]; [13],4
same,"presence of fluorescent P11-4 in lesion, 5 min",[1]; [13],4
same,Average presence of P11-4,[1]; [14],3.7
same,"presence of fluorescent P11-4 in lesion, 1 min",[1]; [14],3
same,"presence of fluorescent P11-4 in lesion, 2 min",[1]; [14],4
same,"presence of fluorescent P11-4 in lesion, 5 min",[1]; [14],4
same,Average presence of P11-4,[1]; [15],2.3
same,"presence of fluorescent P11-4 in lesion, 1 min",[1]; [15],1
same,"presence of fluorescent P11-4 in lesion, 2 min",[1]; [15],3
same,"presence of fluorescent P11-4 in lesion, 5 min",[1]; [15],3
same,Average presence of P11-4,[1]; [16],1.3
same,"presence of fluorescent P11-4 in lesion, 1 min",[1]; [16],1
same,"presence of fluorescent P11-4 in lesion, 2 min",[1]; [16],1
same,"presence of fluorescent P11-4 in lesion, 5 min",[1]; [16],2
CH3CO-QQRFEWEFEQQ-NH2 (Ac-QQRFEWEFEQQ-NH2) [terminally modified P11-4],pH at which the self-assembling peptides start to undergo self-assembly,[2],about 7.5

# From patent publication US12485078B2, “Personal dental care product for caries treatment” (Credentis AG, priority 2016, dated 2025)
